Values quoted from earlier work in patent US5585490A, “Certain cycloalkyl and azacycloalkyl pyrrolopyrimidines; a new class of GABA brain receptor ligands” (priority 1993, dated 1996).

Tested on: benzodiazepine binding site
Conditions: Tallman et al., 1978, Nature, 274: 383-85

## CN1CCc2cc3c(cc2C1C1OC(=O)c2c1ccc1c2OCO1)OCO3 (single isomer, unassigned; (+)) [(+) bicuculline]
  Enhancement of benzodiazepine binding by GABA agonists is blocked: blocked

## CN1CCc2cc3c(cc2C1C1OC(=O)c2c1ccc1c2OCO1)OCO3 (single isomer, unassigned; (-)) [(-) bicuculline]
  Enhancement of benzodiazepine binding by GABA agonists is blocked: much less active
